Test results reported in patent publication US20240002379A1, “ASYMMETRIC CONJUGATE COMPOUNDS” (Pheon Therapeutics Ltd., priority 2016, published 2024).

Legend:
[1] = test system: SW620 cell line (gastric); assay: MTT cytotoxicity assay, SW620; type: cell-based; conditions: Homo sapiens, SW-620; MTT assay, 72 hour incubation; read-out: Cytotoxicity SW620 (72 hours)
Outline: (§1)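 Cells seeded at 1800/well in RPMI1640 + 10% FBS, adhered overnight, then exposed to compound 72 h at 37° C. Survival by MTT (500 μg/ml, 4 h), formazan in DMSO read at 540 nm, blank-corrected versus untreated wells; IC50 read from concentration–survival plot.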

[2] = test system: fluorescently labelled DNA duplex 5′-[…]-3′; assay: FRET DNA melting, FIG. 13 bottom duplex (intrastrand); type: binding
Excerpt: FRET DNA melting studies were undertaken on 13 using two fluorescently labelled sequences. The sequences (FIG. 13) were designed to provide additional evidence that 13 can form inter- and intrastrand cross-links. Inosines were inserted in place of traditional DNA bases to limit the number of binding sites available for 13 to interact with.
Oligonucleotides were obtained from ATDbio (Southampton, UK) in lyophilised form. They were labelled with a fluorophore molecule (F=fluorescein) at the 5′-end and a quencher molecule (Q=dabcyl) at the 3′-end of the complementary strand. Each oligonucleotide was dissolved in distilled H2O to form stock solutions of 100 PM. Working solutions of 5 μM were prepared by diluting the stock solution with distilled H2O. […]
(§2) The reaction mixture was comprised of 4 μL of 250 mM phosphate buffer (final concentration of 50 mM), 4 μL flourophor and 4 μL quencher molecule of the appropriate oligonucleotide for a final concentration of 0.2 PM, 4 μL 5 M sodium chloride (final concentration of 1 M NaCl), and 4 μL of distilled H2O. […] This mixture was analysed without prior annealing.
(§3) Fluorescence melting profiles were measured using a Roche LightCycler using a total reaction volume of 20 μL. […] Annealing steps and melting steps were all recorded and changes in fluorescence were measured at 520 nm. […]

[3] = test system: LIM1215 cell line (gastric); assay: MTT cytotoxicity assay, LIM1215; type: cell-based; conditions: LIM1215; MTT assay, 72 hour incubation; read-out: Cytotoxicity LIM1215 (72 hours)
Outline: as §1

[4] = test system: fluorescently labelled DNA duplex 5′-[…]-3′; assay: FRET DNA melting, FIG. 17 top sequence; type: binding; conditions: suggests interstrand cross-link formation
Excerpt: Further FRET DNA melting studies were undertaken on a number of molecules using three fluorescently labelled sequences. The sequences (FIG. 17) were designed to provide additional evidence that the series can form inter- and intrastrand cross-links. Inosines were inserted in place of traditional DNA bases in some cases to limit the number of binding sites available for the compounds to interact with. The short duplexes used in this FRET study are relatively unstable in the duplex form with a melting temperature below 30° C. so that, in the absence of ligand, a large part of the melting occurs below the starting temperature of the experiment. […] Increasing concentrations of 13 cause a greater amount of the melting transition to appear at the higher temperature (i.e. a greater number of the DNA molecules are cross-linked). […]
as §2, §3

| Compound | IC50 [1] | change of melting temperature with compound concentration ([2]; FIG. 14 bottom panel) | Tm value ([2]; duplex alone melts below 30° C., suggests intra-strand cross-link) | IC50 [3] | Tm value [4] |
| --- | --- | --- | --- | --- | --- |
| COc1cc2c(cc1OCCCC(=O)N1C[C@@H](CCl)c3c1cc(O)c1ccccc31)N=C[C@@H]1CCCCN1C2=O [Compound 13, (S)-3-(4-((S)-1-(Chloromethyl)-5-hydroxy-1,2-dihydro-3H-benzo[e]indol-3-yl)-4-oxobutoxy)-2-methoxy-7,8,9,10-tetrahydrobenzo[e]-pyrido[1,2-a][1,4]diazepin-12(6aH)-one] | 0.42 nM | increases significantly | 60 °C | 0.68 nM |  |
| COc1cc2c(cc1OCc1cccc(CC(=O)N3C[C@@H](CCl)c4c3cc(O)c3ccccc43)c1)N=C[C@@H]1CCCCN1C2=O [Compound 42, (S)-3-((3-(2-((S)-1-(Chloromethyl)-5-hydroxy-1,2-dihydro-3H-benzo[e]indol-3-yl)-2-oxoethyl)benzyl)oxy)-2-methoxy-7,8,9,10-tetrahydrobenzo[e]pyrido[1,2-a][1,4]diazepin-12(6aH)-one] |  |  |  |  | ~80 °C |
